Consider 1 compound from patent publication US20230321127A1, “SPERM MOTILITY IMPROVING AGENT AND SPERM MOTILITY IMPROVING METHOD” (MIRAILAB BIOSCIENCE INC., priority 2020, published 2023).

The subject of the test is swine sperms. As to the kind of experiment: Swine sperm motility analyzed by CASA during incubation with NMN alone or NMN+PQQ. It is filed as cell-based. How it is done:
Upon arrival of a pack containing swine diluted semen (sperm concentration (total sperm count) 30,000,000/ml, HIRO-SWINE B solution (HIROSHIMA CRYO-PRESERVATION SERVICE) was used as a diluent) provided by Oita Prefectural Agriculture, Forestry and Fisheries Research Center, the pack was immediately stored in an incubator at 15° C. The next day, 5 ml of the above semen from each pack was transferred to a 15 ml centrifuge tube, NMN was added to concentrations from 0.1 to 100 μM (0.1 μM, 1 μM, 10 μM, 100 μM) using HIRO-SWINE B solution as a culture medium, and they were incubated at 37° C. for up to 6 hours. For some diluted semen, pyrrolo-quinoline quinone (PQQ) (MITSUBISHI GAS CHEMICAL COMPANY, INC) was added to a concentration of 100 nM, in addition to NMN or without the addition of NMN, and it was incubated in the same manner. Sperms were taken out at 0, 2, 4, and 6 hours after the start of incubation, and their sperm motility was analyzed using CASA (HT CASA-Ceros II (product name), Hamilton Thorne, Inc.). […] The error bars in FIG. 2 represent standard errors. Sperm motion loci were also photographed by phase contrast microscopy at 2, 4, and 6 hours after the start of incubation and the photographs were shown in FIG. 3.

[1] abbreviates: NMN alone addition zone (PQQ-), 0.1-100 μM, effect observed up to 4 hours later.
The mark [2] stands for this setting: NMN alone addition zone, 6 hours later.

Take `NC(=O)c1ccc[n+]([C@@H]2O[C@H](COP(=O)([O-])O)[C@@H](O)[C@H]2O)c1` [NMN, nicotinamide mononucleotide]: under “NMN 0.1-100 μM added to swine diluted semen, 37° C., up to 6 hours”, the “total moment (proportion of sperms in motion to total sperms counted)” value was “not affected”. Besides, under setting [1], the “straight (forward) moment” value is reported as “significantly increased” and the “straight (forward) speed” value was “significantly increased”. Besides, under setting [2], the “improving effect on the straight moment” value was “disappeared” and the “improving effect on the straight speed” value was “disappeared”.
